# Results published in PubChem BioAssay AID1259407 (Chemical Carcinogenesis Research Information System (CCRIS), 2018).
# Calls of active or inactive are those of the source. The rule behind the calls is not given here.
# System: CCRIS mutagenicity, Ames/micronucleus/aberration tests
# Assay: CCRIS mutagenicity studies
compound,measurement,setting,value
Cc1ccccc1N,mutagenic call,"End Point: IN VIVO MICRONUCLEUS, Test System: HEPATOCYTES, Species: RAT, Strain/Sex: FISHER 344 OR SD/MALE, Route: ORAL OR IP",inactive; negative
same,mutagenic call,"End Point: IN VIVO MICRONUCLEUS, Test System: PERIPHERAL BLOOD RETICULOCYTES, Species: RAT, Strain/Sex: FISHER 344 OR SD/MALE, Route: ORAL OR IP",active; positive
same,mutagenic call,"Test System: AMES SALMONELLA TYPHIMURIUM, Strain/Indicator: TA97, Metabolic Activation: HAMSTER LIVER S-9, AROCLOR 1254 (10 OR 30%), Method: PREINCUBATION",inactive; negative
same,mutagenic call,"Test System: AMES SALMONELLA TYPHIMURIUM, Strain/Indicator: TA97, Metabolic Activation: NONE, Method: PREINCUBATION",inactive; negative
same,mutagenic call,"Test System: AMES SALMONELLA TYPHIMURIUM, Strain/Indicator: TA97, Metabolic Activation: NONE, Method: STANDARD PLATE",inactive; negative
same,mutagenic call,"Test System: AMES SALMONELLA TYPHIMURIUM, Strain/Indicator: TA97, Metabolic Activation: RAT LIVER S-9, AROCLOR 1254 (10 OR 30%), Method: PREINCUBATION",inactive; negative
same,mutagenic call,"Test System: AMES SALMONELLA TYPHIMURIUM, Strain/Indicator: TA97, Metabolic Activation: RAT, LIVER, S-9, PHENOBARBITAL AND 5,6-BENZOFLAVONE, Method: PREINCUBATION",inactive; negative
same,mutagenic call,"Test System: AMES SALMONELLA TYPHIMURIUM, Strain/Indicator: TA97, Metabolic Activation: S-9, Method: STANDARD PLATE",inactive; negative
same,mutagenic call,"Test System: AMES SALMONELLA TYPHIMURIUM, Strain/Indicator: TA98, Metabolic Activation: HAMSTER LIVER S-9, AROCLOR 1254 (10 OR 30%), Method: PREINCUBATION",inactive; negative
same,mutagenic call,"Test System: AMES SALMONELLA TYPHIMURIUM, Strain/Indicator: TA98, Metabolic Activation: HAMSTER, LIVER, S-9, AROCLOR 1254 (10%), Method: PREINCUBATION",inactive; negative
same,mutagenic call,"Test System: AMES SALMONELLA TYPHIMURIUM, Strain/Indicator: TA98, Metabolic Activation: HAMSTER, LIVER, S-9, AROCLOR 1254 (30%), Method: PREINCUBATION",inactive; negative
same,mutagenic call,"Test System: AMES SALMONELLA TYPHIMURIUM, Strain/Indicator: TA98, Metabolic Activation: HAMSTER, LIVER, S-9, SODIUM PHENOBARBITAL AND 5,6-BENZOFLAVONE, Method: PREINCUBATION",inactive; negative
same,mutagenic call,"Test System: AMES SALMONELLA TYPHIMURIUM, Strain/Indicator: TA98, Metabolic Activation: HAMSTER, LIVER, S-9, Method: PREINCUBATION (PRIVAL METHOD)",active; positive
same,mutagenic call,"Test System: AMES SALMONELLA TYPHIMURIUM, Strain/Indicator: TA98, Metabolic Activation: NONE, Method: PREINCUBATION",inactive; negative
same,mutagenic call,"Test System: AMES SALMONELLA TYPHIMURIUM, Strain/Indicator: TA98, Metabolic Activation: NONE, Method: STANDARD PLATE",inactive; negative
same,mutagenic call,"Test System: AMES SALMONELLA TYPHIMURIUM, Strain/Indicator: TA98, Metabolic Activation: RAT LIVER S-9, AROCLOR 1254 (10 OR 30%), Method: PREINCUBATION",inactive; negative
same,mutagenic call,"Test System: AMES SALMONELLA TYPHIMURIUM, Strain/Indicator: TA98, Metabolic Activation: RAT, LIVER, S-9, AROCLOR 1254 (10%), Method: PREINCUBATION",inactive; negative
same,mutagenic call,"Test System: AMES SALMONELLA TYPHIMURIUM, Strain/Indicator: TA98, Metabolic Activation: RAT, LIVER, S-9, AROCLOR 1254 (30%), Method: PREINCUBATION",inactive; negative
same,mutagenic call,"Test System: AMES SALMONELLA TYPHIMURIUM, Strain/Indicator: TA98, Metabolic Activation: RAT, LIVER, S-9, AROCLOR 1254 + 200 UG NORHARMAN, Method: STANDARD PLATE",active; positive
same,mutagenic call,"Test System: AMES SALMONELLA TYPHIMURIUM, Strain/Indicator: TA98, Metabolic Activation: RAT, LIVER, S-9, AROCLOR 1254, Method: PREINCUBATION",inactive; negative
same,mutagenic call,"Test System: AMES SALMONELLA TYPHIMURIUM, Strain/Indicator: TA98, Metabolic Activation: RAT, LIVER, S-9, PHENOBARBITAL AND 5,6-BENZOFLAVONE, Method: PREINCUBATION",inactive; negative
same,mutagenic call,"Test System: AMES SALMONELLA TYPHIMURIUM, Strain/Indicator: TA98, Metabolic Activation: S-9, Method: STANDARD PLATE",inactive; negative
same,mutagenic call,"Test System: AMES SALMONELLA TYPHIMURIUM, Strain/Indicator: TA100, Metabolic Activation: HAMSTER LIVER S-9, AROCLOR 1254 (10%), Method: PREINCUBATION",inactive; negative
same,mutagenic call,"Test System: AMES SALMONELLA TYPHIMURIUM, Strain/Indicator: TA100, Metabolic Activation: HAMSTER LIVER S-9, AROCLOR 1254 (30%), Method: PREINCUBATION",active; positive
same,mutagenic call,"Test System: AMES SALMONELLA TYPHIMURIUM, Strain/Indicator: TA100, Metabolic Activation: HAMSTER, LIVER, S-9, AROCLOR 1254 (10%), Method: PREINCUBATION",inactive; negative
same,mutagenic call,"Test System: AMES SALMONELLA TYPHIMURIUM, Strain/Indicator: TA100, Metabolic Activation: HAMSTER, LIVER, S-9, AROCLOR 1254 (30%), Method: PREINCUBATION",active; positive
same,mutagenic call,"Test System: AMES SALMONELLA TYPHIMURIUM, Strain/Indicator: TA100, Metabolic Activation: HAMSTER, LIVER, S-9, SODIUM PHENOBARBITAL AND 5,6-BENZOFLAVONE, Method: PREINCUBATION",inactive; negative
same,mutagenic call,"Test System: AMES SALMONELLA TYPHIMURIUM, Strain/Indicator: TA100, Metabolic Activation: NONE, Method: PREINCUBATION",inactive; negative
same,mutagenic call,"Test System: AMES SALMONELLA TYPHIMURIUM, Strain/Indicator: TA100, Metabolic Activation: NONE, Method: STANDARD PLATE",inactive; negative
same,mutagenic call,"Test System: AMES SALMONELLA TYPHIMURIUM, Strain/Indicator: TA100, Metabolic Activation: RAT LIVER S-9, AROCLOR 1254 (10 OR 30%), Method: PREINCUBATION",inactive; negative
same,mutagenic call,"Test System: AMES SALMONELLA TYPHIMURIUM, Strain/Indicator: TA100, Metabolic Activation: RAT, LIVER, S-9, AROCLOR 1254 (10%), Method: PREINCUBATION",inactive; negative
same,mutagenic call,"Test System: AMES SALMONELLA TYPHIMURIUM, Strain/Indicator: TA100, Metabolic Activation: RAT, LIVER, S-9, AROCLOR 1254 (30%), Method: PREINCUBATION",inactive; negative
same,mutagenic call,"Test System: AMES SALMONELLA TYPHIMURIUM, Strain/Indicator: TA100, Metabolic Activation: RAT, LIVER, S-9, AROCLOR 1254, Method: STANDARD PLATE",inactive; negative
same,mutagenic call,"Test System: AMES SALMONELLA TYPHIMURIUM, Strain/Indicator: TA100, Metabolic Activation: RAT, LIVER, S-9, PHENOBARBITAL AND 5,6-BENZOFLAVONE, Method: PREINCUBATION",inactive; negative
same,mutagenic call,"Test System: AMES SALMONELLA TYPHIMURIUM, Strain/Indicator: TA100, Metabolic Activation: S-9, Method: STANDARD PLATE",inactive; negative
same,mutagenic call,"Test System: AMES SALMONELLA TYPHIMURIUM, Strain/Indicator: TA102, Metabolic Activation: HAMSTER, LIVER, S-9, SODIUM PHENOBARBITAL AND 5,6-BENZOFLAVONE, Method: PREINCUBATION",inactive; negative
same,mutagenic call,"Test System: AMES SALMONELLA TYPHIMURIUM, Strain/Indicator: TA102, Metabolic Activation: NONE, Method: PREINCUBATION",inactive; negative
same,mutagenic call,"Test System: AMES SALMONELLA TYPHIMURIUM, Strain/Indicator: TA102, Metabolic Activation: NONE, Method: STANDARD PLATE",inactive; negative
same,mutagenic call,"Test System: AMES SALMONELLA TYPHIMURIUM, Strain/Indicator: TA102, Metabolic Activation: S-9, Method: STANDARD PLATE",inactive; negative
